From the CheMixHub ionic liquid set

Experiment: xn = mol fraction of the nth substance listed

CCCC[n+]1ccccc1.F[B-](F)(F)F + O
Details | electrical conductivity [S/m] | viscosity [mPa·s]
283.15 K, 101.3 kPa, x2 = 0.263 | – | 84
283.15 K, 101.3 kPa, x2 = 0.637 | – | 15.85
283.15 K, 101.3 kPa, x2 = 0.724 | – | 10.78
288.15 K, 101.3 kPa, x2 = 0.11 | – | 153.8
288.15 K, 101.3 kPa, x2 = 0.391 | – | 35.82
288.15 K, 101.3 kPa, x2 = 0.637 | – | 13.01
298.15 K, 101 kPa, x1 = 0.000191 | 0.096 | –
298.15 K, 101 kPa, x1 = 0.0004053 | 0.191 | –
298.15 K, 101 kPa, x1 = 0.0005259 | 0.247 | –
298.15 K, 101 kPa, x1 = 0.0007203 | 0.33 | –
298.15 K, 101 kPa, x1 = 0.0008354 | 0.365 | –
298.15 K, 101 kPa, x1 = 0.0009829 | 0.44 | –
298.15 K, 101 kPa, x1 = 0.001125 | 0.486 | –
298.15 K, 101 kPa, x1 = 0.001254 | 0.542 | –
298.15 K, 101 kPa, x1 = 0.001434 | 0.6 | –
298.15 K, 101 kPa, x1 = 0.001585 | 0.659 | –
298.15 K, 101 kPa, x1 = 0.001811 | 0.743 | –
298.15 K, 101 kPa, x1 = 0.001984 | 0.819 | –
298.15 K, 101 kPa, x1 = 0.002073 | 0.846 | –
298.15 K, 101 kPa, x1 = 0.002208 | 0.889 | –
298.15 K, 101 kPa, x1 = 0.002434 | 0.962 | –
298.15 K, 101 kPa, x1 = 0.002597 | 1.02 | –
298.15 K, 101 kPa, x1 = 0.002828 | 1.09 | –
298.15 K, 101 kPa, x1 = 0.002875 | 1.11 | –
298.15 K, 101 kPa, x1 = 0.003074 | 1.17 | –
298.15 K, 101 kPa, x1 = 0.003174 | 1.2 | –
298.15 K, 101.3 kPa, x2 = 0.724 | – | 6.55
303.15 K, 101.3 kPa, x2 = 0.11 | – | 67.1
303.15 K, 101.3 kPa, x2 = 0.549 | – | 11.1
313.15 K, 101.3 kPa, x2 = 0.549 | – | 8.32
313.15 K, 101.3 kPa, x2 = 0.724 | – | 4.34
328.15 K, 101.3 kPa, x2 = 0.11 | – | 24.88
328.15 K, 101.3 kPa, x2 = 0.724 | – | 3.11
333.15 K, 101.3 kPa, x2 = 0.414 | – | 7.99
338.15 K, 101.3 kPa, x2 = 0.637 | – | 3.52
343.15 K, 101.3 kPa, x2 = 0.11 | – | 15.89
343.15 K, 101.3 kPa, x2 = 0.263 | – | 9.35
343.15 K, 101.3 kPa, x2 = 0.391 | – | 6.91
348.15 K, 101.3 kPa, x2 = 0 | – | 18.45

C[n+]1ccn(CCCC#N)c1.O=S(=O)([O-])C(F)(F)F + O=C1CCCO1
100 kPa
Details | electrical conductivity [S/m]
288.15 K, x1 = 0.3003 | 0.53
288.15 K, x1 = 0.6002 | 0.186
288.15 K, x1 = 1 | 0.023
293.15 K, x1 = 0.9004 | 0.069
298.15 K, x1 = 0.9004 | 0.092
303.15 K, x1 = 0.4999 | 0.459
303.15 K, x1 = 0.8002 | 0.179
303.15 K, x1 = 0.9004 | 0.12
308.15 K, x1 = 0.6002 | 0.408
308.15 K, x1 = 1 | 0.083
313.15 K, x1 = 0.3003 | 1.08
313.15 K, x1 = 0.6002 | 0.476
313.15 K, x1 = 0.7001 | 0.372
318.15 K, x1 = 0.8002 | 0.323
318.15 K, x1 = 0.9004 | 0.234
318.15 K, x1 = 1 | 0.134
323.15 K, x1 = 0.3003 | 1.344
323.15 K, x1 = 0.8002 | 0.384
323.15 K, x1 = 0.9004 | 0.281
323.15 K, x1 = 1 | 0.167
333.15 K, x1 = 0.3999 | 1.323
338.15 K, x1 = 0.3003 | 1.79
338.15 K, x1 = 1 | 0.3
343.15 K, x1 = 0.7001 | 0.851

CCCCCCCCCCCCCC[P+](CCCC)(CCCC)CCCC.CCCCCCCCCCCCc1ccc(S(=O)(=O)[O-])cc1 + O
100 kPa
Details | viscosity [mPa·s]
323.15 K, x1 = 0.3453 | 116
353.15 K, x1 = 0.892 | 148
